The values below come from US6384027B1, “Phthalocyanine analogs” (QinetiQ Limited, priority 1997, dated 2002).

This data set can be described thus: Solubility in organic solvents. The data set is classed as physicochemical. The conditions noted are these: in solvents such as THF, toluene, cyclohexane and dichloromethane.

For the molecule `CCCCCCCCc1ccc(CCCCCCCC)c2c1-c1nc-2nc2[nH]c(nc3nc(nc4[nH]c(n1)c1ccncc41)-c1c(CCCCCCCC)ccc(CCCCCCCC)c1-3)c1c(CCCCCCCC)ccc(CCCCCCCC)c21` [1a, 1,4,8,11,15,18-(hexaoctyl)tribenzo-3,4-pyridinoporphyrazine], the solubility entry is “good solubility”.
